Measurements from PubChem BioAssay (NCI).
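Step 1: Grow cells in 96-well plates. Step 2: Expose to compound for 48 hours at 5 concentrations. Step 3: Interpolate endpoints linearly; if unreached, use highest concentration. The concentration for full growth arrest is given as TGI.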

Columns and labels:
Assay in all cases: NCI anticancer screen, dose series, 48 h
MALME-3M melanoma = test system: MALME-3M melanoma
NCI-H226 lung = test system: NCI-H226 lung
UACC-257 melanoma = test system: UACC-257 melanoma
SNB-75 CNS = test system: SNB-75 CNS
MDA-MB-435 = test system: MDA-MB-435
CCRF-CEM leukemia = test system: CCRF-CEM leukemia
SK-OV-3 ovarian = test system: SK-OV-3 ovarian
UACC-62 melanoma = test system: UACC-62 melanoma
NCI-H23 lung = test system: NCI-H23 lung
OVCAR-5 ovarian = test system: OVCAR-5 ovarian

| Structure (SMILES) | TGI (MALME-3M melanoma) | TGI (NCI-H226 lung) | TGI (UACC-257 melanoma) | TGI (SNB-75 CNS) | TGI (MDA-MB-435) | TGI (CCRF-CEM leukemia) | TGI (SK-OV-3 ovarian) | TGI (UACC-62 melanoma) | TGI (NCI-H23 lung) | TGI (OVCAR-5 ovarian) |
| --- | --- | --- | --- | --- | --- | --- | --- | --- | --- | --- |
| Cc1cc2c3c(c1)CCCN3CCC2 | > 10 µM | > 10 µM | > 10 µM | > 10 µM | > 10 µM | > 10 µM | > 10 µM | > 10 µM | > 10 µM |  |
| O=C(/C=C/c1cccs1)c1ccc([N+](=O)[O-])cc1 | > 100 µM | > 100 µM | > 100 µM | > 100 µM | > 100 µM | > 100 µM | > 100 µM | > 100 µM | > 100 µM |  |
| N#C[C@H](C(=O)c1ccccc1F)c1nc2ccccc2[nH]1 |  | > 100 µM | > 100 µM | > 100 µM | > 100 µM | > 100 µM | > 100 µM | > 100 µM | > 100 µM | > 100 µM |
| O=S(=O)(/N=C(\NO)Nc1ccc(Cl)cc1)c1cc(S(=O)(=O)c2ccccc2)cs1 | 28.5 µM | 51.6 µM | 39 µM |  | 29.9 µM | 43.5 µM |  | 43.1 µM | 41.9 µM | 42.5 µM |
| CC(=O)OC1CC[C@@]2(C)C(=CC[C@@H]3[C@@H]2CC[C@]2(C)C(OC(C)=O)[C@H](n4ccnc4)C[C@@H]32)C1 (some centres undefined) | 28.3 µM | > 100 µM | 31.1 µM | > 100 µM | 31.6 µM | 37.1 µM |  | 30.3 µM | > 100 µM | > 100 µM |
| CC(=O)Oc1ccc(/C=C/C(=O)NCCOC(=O)/C=C/c2ccc(OC(C)=O)c(OC(C)=O)c2)cc1OC(C)=O | > 100 µM |  | > 100 µM | 79.6 µM | > 100 µM |  | > 100 µM | 49.1 µM | 79.4 µM | 97.6 µM |
| N/C(=N\N=C/c1cc([N+](=O)[O-])cc([N+](=O)[O-])c1O)NO | > 100 µM | > 100 µM | > 100 µM | > 80.9 µM |  | > 100 µM | > 100 µM | > 31.1 µM | > 100 µM | > 87.3 µM |
| COc1cccc(/C=N/[N-]C(N)=O)c1[O-].[OH3+].[Pd+2] | > 100 µM | > 100 µM | > 100 µM | > 100 µM |  | > 100 µM | > 100 µM | > 100 µM | > 100 µM | > 100 µM |
| CCN(CC)C(=S)S | 60.4 µM | > 100 µM | 65.1 µM |  |  | 9.46 µM | > 100 µM | 12.3 µM |  | > 100 µM |
| CC(=O)O[C@H]1C[C@H]2[C@@H]([C@H](OC(C)=O)C[C@@H]3CC4(CC[C@@]32C)OOC2(CCCCC2)OO4)[C@@H]2CC[C@H]([C@H](C)CCC(=O)O)[C@@]12C | 34.3 µM | 31.6 µM | 25 µM | 14.8 µM | 18.9 µM | 15.5 µM | 26.9 µM |  | 16.6 µM | 29.8 µM |
| O=C(/C=C/c1ccc(Cl)cc1)c1ccc(Cl)s1 | > 100 µM |  | > 100 µM | > 100 µM |  | 83.7 µM | > 100 µM | 93 µM | > 100 µM | > 100 µM |
| CC(=O)c1sc2c(c1O)c(=O)n(-c1ccccc1)c(=S)n2-c1ccccc1 | > 100 µM | > 100 µM | > 100 µM | > 100 µM | > 100 µM |  |  | > 100 µM | > 100 µM | > 100 µM |
| CCOC(=O)C1=C(C)N(CC(C)C)C2(O)C(OC)CC(=O)C3C(=O)N(c4ccccc4)C(=O)C132 (centres undefined) | 96.7 µM | 57.7 µM | > 100 µM | 75.4 µM | > 100 µM | > 100 µM |  | 47.6 µM | > 100 µM | > 100 µM |
| O=C1NC2=NN=C(c3ccc(Br)cc3)CN2NC12c1ccccc1-c1ccccc12 | > 100 µM | > 100 µM | > 100 µM | > 100 µM | > 100 µM |  | > 100 µM | > 100 µM | > 100 µM | > 100 µM |
| CCOC(=O)[C@@H]1C[C@@H]1c1ccc(O)c(O)c1 | > 100 µM | 97.4 µM | > 100 µM |  | 34.5 µM |  | > 100 µM | 27 µM | > 100 µM | > 100 µM |
| Brc1ccc(-c2nc(-c3ccc(Br)cc3)n(-c3ccccc3)n2)cc1 |  | > 100 µM | > 100 µM | > 100 µM | > 100 µM | > 100 µM | > 100 µM | > 100 µM | > 100 µM | > 100 µM |
| O=C1c2ccccc2/C=C\C(c2ccccc2)=N/N1c1ccccc1Cl | 71.4 µM | > 100 µM | 90.5 µM | 97.8 µM | 16.8 µM | > 100 µM |  |  | 93.6 µM | > 100 µM |
| Clc1cccc2[nH]ncc12 |  | > 100 µM | > 100 µM | > 100 µM | > 100 µM | > 100 µM | > 100 µM | > 100 µM |  | > 100 µM |
| O=C1c2ccccc2-n2c1nc1ccc(Cl)cc1c2=O |  | > 100 µM | > 100 µM | 75.5 µM | 31.1 µM | 13.8 µM | > 100 µM | 92.7 µM | > 100 µM | > 100 µM |
| N=C(N)c1ccc(N=Nc2c(O)ccc3cc(O)ccc23)cc1 | > 100 µM | > 100 µM | > 100 µM |  | > 100 µM | > 100 µM | > 100 µM | > 100 µM |  | > 100 µM |
| CCN1C(=O)N2C(OC)c3ccccc3C(Br)C2(OC)C1=O (centres undefined) | > 100 µM | > 100 µM |  | > 100 µM |  | > 100 µM | > 100 µM | > 100 µM | > 100 µM | > 100 µM |
| CCCCOc1ccc(S(=O)(=O)/N=C(\N)Nc2ccc(Cl)cc2)cc1 | 28.5 µM | 44.4 µM | 27.1 µM | 36.3 µM |  |  | 35 µM | 27.1 µM | 29.9 µM | 33.2 µM |
| CCOP(=O)(/C=C\n1ccc(=O)[nH]c1=O)OCC |  | > 100 µM | > 100 µM | > 100 µM | > 100 µM | > 100 µM | > 100 µM | > 100 µM | > 100 µM | > 100 µM |
| Nc1ncnc2c1ncn2CCOC(c1ccccc1)P(=O)(O)O (centres undefined) | > 100 µM | > 100 µM | > 100 µM | > 100 µM |  | > 100 µM | > 100 µM | > 100 µM | > 100 µM | > 100 µM |
